Experimental data from US5900436A, “Substituted indanylidineacetylguanidines, processes for their preparation, their use as medicaments or diagnostics and medicaments containing them” (priority 1996, dated 1999).
pIC50: −log10 of the molar value.

Tests used:
Na^+ /H^+ exchanger = target: T1, Na^+ /H^+ exchanger (Oryctolagus cuniculus, UniProt P23791); test: Sodium-Proton exchange inhibition in rabbit erythrocytes; type: cell-based, rabbit (Albino rabbits of New Zealand strain); settings: concentration necessary to reduce the erythrocyte sodium content to 50%; erythrocytes of rabbits fed 2% cholesterol diet six weeks; 37° C., 1 hour, hyperosmolar sucrose buffer with ouabain
T1 construct: increase the exchanger activity in the rabbit erythrocytes; endogenous in cells; host or cells: erythrocytes in blood of cholesterol-fed New Zealand albino rabbits
T1 sequence (P23791 whole entry): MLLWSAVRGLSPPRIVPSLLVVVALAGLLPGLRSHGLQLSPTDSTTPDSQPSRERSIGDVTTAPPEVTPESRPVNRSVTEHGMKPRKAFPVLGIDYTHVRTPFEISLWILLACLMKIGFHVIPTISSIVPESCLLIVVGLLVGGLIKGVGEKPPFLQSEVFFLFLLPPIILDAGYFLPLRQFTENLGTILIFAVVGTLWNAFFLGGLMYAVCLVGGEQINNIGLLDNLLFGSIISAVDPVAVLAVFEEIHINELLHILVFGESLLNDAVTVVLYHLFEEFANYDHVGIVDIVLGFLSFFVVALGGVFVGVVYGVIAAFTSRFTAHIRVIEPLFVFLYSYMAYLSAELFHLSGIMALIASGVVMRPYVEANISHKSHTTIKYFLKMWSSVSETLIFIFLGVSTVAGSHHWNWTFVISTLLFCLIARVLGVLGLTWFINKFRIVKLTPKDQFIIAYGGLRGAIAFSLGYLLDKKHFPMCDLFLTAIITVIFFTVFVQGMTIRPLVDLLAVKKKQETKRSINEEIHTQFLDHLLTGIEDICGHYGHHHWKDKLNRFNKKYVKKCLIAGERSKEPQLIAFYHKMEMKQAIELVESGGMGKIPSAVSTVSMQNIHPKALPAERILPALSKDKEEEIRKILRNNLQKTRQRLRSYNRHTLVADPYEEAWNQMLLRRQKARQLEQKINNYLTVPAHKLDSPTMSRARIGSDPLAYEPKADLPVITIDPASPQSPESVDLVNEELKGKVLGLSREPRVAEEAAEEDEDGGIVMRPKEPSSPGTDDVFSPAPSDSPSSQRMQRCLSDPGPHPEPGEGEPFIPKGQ
Text: Sodium -Proton exchange inhibition in rabbit erythrocytes:
Albino rabbits of New Zealand strain were fed with 2% cholesterol diet for six weeks prior to collecting blood for the determination of Na^+ /H^+ exchanger activity in the erythrocytes. Hypercholesteremia has been reported to increase the exchanger activity in the rabbit erythrocytes (Scholz et al, 1990; Arteriosklerose-Neue Aspekte aus Zellbiologie und Molekulargenetik, Epidemiologie und Klinik; Assmann, G. et al, Eds, Braunschweig, Wiesbaden, Vieweg, 296-302 ). Blood samples were collected from the ear vein and hematocrit was determined. About […] of blood was incubated at 37° C. for 1 hour with hyperosmolar sucrose buffer containing 0.1 mmoles Ouabain in the presence and absence of test sample. After the incubation period, the reaction was stopped by addition of 5 ml of ice cold MgCl2 solution containing 0.1 mmole Ouabain. The erythrocytes were washed three times with 5 ml quantities of MgCl2 solution. They were hemolyzed by the addition of 4 ml of distilled water and the sodium content of the hemolyzate was determined by flame-photometry. The activity of the test compound was determined by its ability to reduce the sodium content of the erythrocyte and was expressed as IC50 which is the concentration necessary to reduce the erythrocyte sodium content to 50%.

rat hearts = settings: isolated rat hearts, cited from earlier work
[1] = Circulation 79, 1257-1263 (1989); cited from earlier work

| SMILES | pIC50 (Na^+ /H^+ exchanger) | also measured |
| --- | --- | --- |
| Cc1cccc2c1CCC2=CC(=O)N=C(N)N [Compound No. 4, 4-methyl-1-indanylidineacetyl-guanidine-methanesulfonic acid] | 6.15 |  |
| N=C(N)NC(=O)c1nc(Cl)c(N)nc1N [amiloride] |  | suppression of artificially induced ventricular fibrillation (rat hearts; Eur. Heart J. 9 {supplement 1}: 167 (1988)): suppress an artificially induced ventricular fibrillation completely; antiarrhythmic effect [1]: only slight |
| COc1ccc2c(c1)C(=CC(=O)N=C(N)N)CC2 [compound 6] | 6.18 |  |
| Cc1ccc2c(c1)CCC2=CC(=O)N=C(N)N [compound 7] | 6.35 |  |
| CCN(c1nc(N)c(C(=O)N=C(N)N)nc1Cl)C(C)C [ethylisopropylamiloride] |  | potency relative to amiloride against artificially induced ventricular fibrillation (rat hearts): even more potent than amiloride |
